Here are results for four molecules from patent publication US8933028B2, “Use of selective estrogen receptor modulator for joint fusion and other repair or healing of connective tissue” (priority 2010, dated 2015).

Entries after “also recorded” stand apart in the source; their conditions may differ.

One data set deals with osteoblastic cells. Conditions: cited from earlier work.
The next data set deals with endogenous BMP-2. Conditions: primarily on the α-estrogen receptor; cited from earlier work.
In the next data set the test system is sacroiliac joint. The experiment in a line: Effect of oral raloxifene on bone healing after sacroiliac joint fusion with BMP-2. Type of data set: in vivo, human. An excerpt:
The patients involved in the study were female at age of over 60 years old.

Another data set has as its system bone. The settings on record: postmenopausal women, compared with estrogen; cited from earlier work.
For data set [1] the following is noted: cited from earlier work.
Another data set deals with fracture healing. Conditions: primates; cited from earlier work.
In the next data set the test system is tendon to bone healing. The settings on record: rat model; cited from earlier work.
The mark [2] stands for this setting: raloxifene therapy for osteoporosis.

For the molecule `O=C(c1ccc(OCCN2CCCCC2)cc1)c1c(-c2ccc(O)cc2)sc2cc(O)ccc12` [raloxifene], in the data set with osteoblastic cells, the “effect on TNF-α induced apoptosis” value is recorded as “anti-apoptotic effect”. For the same molecule, in the data set on endogenous BMP-2, the “effect on endogenous BMP-2 (potentiation / secretion)” value is reported as “similar”. Moreover, the “bone healing or bone graft incorporation versus raloxifene immediately following surgery” value in the data set on sacroiliac joint (delayed raloxifene administration) is “not as complete”. For the same molecule, the “recovery versus control patients with BMP-2 only” value with sacroiliac joint (delayed raloxifene administration, some patients) is reported as “superior recovery results”. Also, the “bone healing / maturity of bone” value in the data set on sacroiliac joint (females over 60, raloxifene 60 mg/day orally for three months after surgery, BMP-2 at surgery in all patients) is listed as “Significant improvement”. The “bone graft incorporation into host bone (images)” value in the data set on sacroiliac joint (females over 60, three months after surgery, BMP-2 at surgery in all patients, FIGS. 5-7) is “improved incorporation; also recorded: fully healed and incorporated”. Further, in the data set with sacroiliac joint (postmenopausal women, local BMP-2 and oral raloxifene, three months), the “fusion result compared with patient who received BMP-2 without raloxifene” value is reported as “better than normal healing”. In addition, in the data set with bone, the “activation frequency, bone formation rate or bone volume” value is given as “did not decrease”. In data set [1] (setting [2]), the “stimulation of the uterus or breasts” value is given as “does not stimulate” and the tolerability result is given as “well tolerated”. Also, the “occurrence of uterine bleeding, thrombophlebitis, breast abnormalities, or increased endometrial thickness” value in data set [1] (raloxifene treated groups versus control) is “no differences among groups”.
On to “FGF-2: fibroblast growth factor-2, likely potent bone anabolic agent”, for which, in the data set on fracture healing, the fracture healing result is “accelerates fracture healing and prevents nonunion”.
Take estrogen: the “effect on endogenous BMP-2 (potentiation / secretion)” value in the data set on endogenous BMP-2 is on record as “direct measurable effect”.

B1: rhPTH: Recombinant Human Parathyroid Hormone (protein, UniProt P01270 32-115, looked up)
Parathyroid hormone: SVSEIQLMHNLGKHLNSMERVEWLRKKLQDVHNFVALGAPLAPRDAGSQRPRKKEDNVLVESHEKSLGEADKADVNVLTKAKSQ
modifications: Parathyroid hormone
As to B1, in the data set on tendon to bone healing, the “tendon repair and tendon qualities” value is listed as “improved”.
